In article PMC6273954, “Antileishmanial Activity and Structure-Activity Relationship of Triazolic Compounds Derived from the Neolignans Grandisin, Veraguensin, and Machilin G” (Molecules, 2016):
≈ marks a conversion by molar mass, not a printed value. Where two headings read alike, the source gives them in different places.

Tests used:
[1] = tested on: L. donovani promastigote forms; design: method as in PMID 18688887; conditions: cited from earlier work
[2] = tested on: L. (L.) amazonensis intracellular amastigotes; assay: In vitro antileishmanial activity on intracellular amastigotes in peritoneal macrophages; type: cell-based, Leishmania (Leishmania) amazonensis; design: key to activity class against intracellular amastigotes: active (<20 µM); moderately active (20–50 µM); potentially inactive (>50 µM); conditions: for IC50: Leishmania amazonensis, Peritoneal macrophage; for concentration from which infection index was significantly decreased / effect on infection index: versus untreated cells
Protocol: In vitro antileishmanial activity was evaluated on peritoneal macrophages infected with. L. (L.) amazonensis intracellular amastigotes. Parasites (IFLA/BR/1967/PH8 strain) were routinely isolated from BALB/c mice and maintained as promastigotes at 25 °C in Schneider's Insect Medium (Sigma-Aldrich®, St. Louis, MO, USA) supplemented with 20% fetal calf serum (FCS-Cultilab® Campinas, Brazil) and 140 μg·mL^-1 gentamicin (Sigma-Aldrich®). Macrophages were obtained from peritoneal wash of BALB/c mice after euthanasia. 10 mL of RPMI 1640 (Sigma-Aldrich®) supplemented with 2% L-glutamine, 2.8% bicarbonate buffer, 100 U·mL^-1 penicillin and […] streptomycin were injected into the peritoneal cavity. After massage area, liquid was aspirated and transferred to tubes on ice. Peritoneal cells were quantified in Neubauer chamber after cellular exclusion with Trypan Blue staining (Sigma-Aldrich®). Peritoneal cells (1 × 10^5 cells/well) were added to 24-well plates containing circular coverslips. Plates were incubated for one hour at 37 °C/5% CO2 to allow cell adhesion and then 1 × 10^6 L. (L.) amazonensis promastigotes were added to each well. Plates were incubated at 35 °C/5% CO2 for four hours and then cells were treated for 24 h with synthetic compounds 4-19 (6.25-50 μg·mL^-1). Amphotericin B (Sigma-Aldrich®) was used as the reference drug (0.25 to 2 μg·mL^-1) and untreated cells were used as negative control. Coverslips were processed as described by Rizk et al.. The overall number of amastigotes was determined by counting 100 cells in six replicates. The half maximal inhibitory concentration (IC50) was calculated using a nonlinear regression curve. Infection index was obtained as described by […] et al..

J774.A1 cells = assay: Cytotoxicity assay (sulforhodamine B); type: cell-based, murine; conditions: for SI (selectivity index): IC50 on mammalian cells/IC50 on intracellular amastigotes; for IC50: Mus musculus, J774.A1, murine macrophages, 48 h, sulforhodamine B; for cytotoxicity on mammalian cells: J774.A1 macrophages
Protocol: Amphotericin B (Sigma-Aldrich®) was used as the reference drug (0.025–25 µg·mL^−1). Cell growth was evaluated according to Skehan et al. using the sulforhodamine B assay. Dimethyl sulfoxide (DMSO, Vetec®, Rio de Janeiro, Brazil) was used as negative control at the concentration used to solubilize the highest concentration of compounds. IC50 was calculated by nonlinear regression curve. Selectivity index was calculated according to Medeiros et al..

[3] = tested on: L. amazonensis infected macrophages; assay: Nitric oxide production by infected and treated peritoneal cells (Griess); type: cell-based, BALB/c mice
Protocol: To evaluate the nitric oxide production (NO) by infected and treated peritoneal cells, 50 µL of culture supernatant from the antileishmanial assay were collected and incubated with equal volume of Griess reagent (1% sulfanilamide /0.1% naphthalene diamine in 5% phosphoric acid) for 10 min at room temperature. According to Ding et al., the absorbance was determined at 540 nm and converted to NO2^− (µM) by comparing to a standard curve of known concentrations of sodium nitrite (1–10 µM) in RPMI medium (Sigma-Aldrich®).

[4] = tested on: L. (L.) amazonensis promastigotes; conditions: cited from earlier work
[5] = in Mus musculus, infected BALB/c peritoneal macrophages, treated 24 h, read-out: Intracellular Amastigotes IC50
[6] = classified by IC50 according to Upegui et al.
[7] = at the highest concentration(s) tested, compared to control
[8] = at the lowest concentrations tested, compared to control
[9] = 24 h, classified by IC50 according to Upegui et al., read-out: activity class against intracellular amastigotes
[10] = highest reduction reached / at the highest concentration, 24 h after treatment
[11] = 24 h after treatment, compared to untreated infected cells (control)

IC50 [2, 5] [µM] | IC50 [2, 9] [µM] | SMILES | activity class against intracellular amastigotes [2, 6] | SI (selectivity index) (J774.A1 cells) | IC50 (J774.A1 cells) [µM] | nitric oxide (NO) production [3, 11] | other results
 |  | COc1ccc([C@H]2O[C@@H](c3ccc(OC)c(OC)c3)[C@H](C)[C@H]2C)cc1OC [veraguensin] |  |  |  |  | IC50 [1]: 48.3 µM; activity on L. donovani promastigote forms [1]: 18 µg/mL
16 |  | COc1ccc(-c2cn(-c3ccc(OC)c(OC)c3)nn2)cc1 [Compound 8] | active | 4.9 | 79.2 |  | 
16.5 |  | COc1ccc(-n2cc(-c3cc(OC)c(OC)c(OC)c3)nn2)cc1 [Compound 11] | active | 4.1 | 67.5 |  | nitric oxide (NO) production [3, 7]: higher than control; nitric oxide (NO) production [3, 8]: lower than untreated cells
21.3 | 20 to 50 | COc1ccc(-c2cn(-c3ccc(OC)c(OC)c3)nn2)cc1OC [Compound 5] |  | 3.6 | 76.4 |  | concentration from which infection index was significantly decreased ([2]; 24 h after treatment): 12.5 µg/mL; nitric oxide (NO) production ([3]; at 25 µg·mL−1, compared to control): lower than control
29.2 | 20 to 50 | COc1ccc(-n2cc(-c3cc(OC)c(OC)c(OC)c3)nn2)cc1OC [Compound 15] |  | 2.6 | 76.9 |  | 
13.1 |  | COc1ccc(-c2cn(-c3ccc(OC)cc3)nn2)cc1 [Compound 4] | active | 66.9 | 877 |  | nitric oxide (NO) production [3, 7]: increase of NO production
29.9 | 20 to 50 | COc1ccc(-n2cc(-c3ccc4c(c3)OCO4)nn2)cc1OC [Compound 17] |  | 0.3 | 9.2 |  | cytotoxicity on mammalian cells (J774.A1 cells): toxic for the macrophages
 |  | COc1cccc2c1C(=O)c1c(O)c3c(c(O)c1C2=O)C[C@@](O)(C(=O)CO)C[C@@H]3O[C@H]1C[C@H](N)[C@H](O)[C@H](C)O1 [Doxorubicin, reference compound] |  |  | 0.5 |  | 
29.8 | 20 to 50 | COc1cc(-c2cn(-c3ccc4c(c3)OCO4)nn2)cc(OC)c1OC [Compound 18] |  | 2.2 | 66.9 | did not induce a significant production of NO | reduction of infection index [2, 10]: 92.1%
18.3 |  | COc1ccc(-n2cc(-c3ccc(OC)c(OC)c3)nn2)cc1 [Compound 9] | active | 1.2 | 22.6 |  | 
50.7 |  | COc1ccc(-n2cc(-c3ccc4c(c3)OCO4)nn2)cc1 [Compound 13] | did not show potential activity | 2.6 | 135 | increase in NO production | 
 |  | COc1cc([C@@H]2O[C@@H](c3cc(OC)c(OC)c(OC)c3)[C@H](C)[C@H]2C)cc(OC)c1OC [grandisin] |  |  |  |  | IC50 on L. (L.) amazonensis promastigotes [4]: 42.4 µg/mL (≈ 98 µM); IC50 ([4]; read-out: IC50 on L. (L.) amazonensis promastigotes): 98 µM
4.4 |  | COc1cc(-n2cc(-c3ccc4c(c3)OCO4)nn2)cc(OC)c1OC [Compound 19] | active | 10.6 | 46.9 | induced nitric oxide production | effect on infection index ([2]; 24 h after treatment): significantly reduced the infection index; cytotoxicity on mammalian cells (J774.A1 cells): low cytotoxicity on mammalian cells; nitric oxide (NO) production [3, 7]: twice as high than control; IC50 ([4]; read-out: IC50 against L. (L.) amazonensis promastigote forms): 7.2 µM
16.8 |  | COc1ccc(-c2cn(-c3cc(OC)c(OC)c(OC)c3)nn2)cc1 [Compound 10] | active | 3.9 | 65.4 |  | 
0.7 |  | C[C@@H]1[C@H](O)[C@@H](C)/C=C/C=C/C=C/C=C/C=C/C=C/C=C/[C@H](O[C@@H]2O[C@H](C)[C@@H](O)[C@H](N)[C@@H]2O)C[C@@H]2O[C@](O)(C[C@@H](O)C[C@@H](O)[C@H](O)CC[C@@H](O)C[C@@H](O)CC(=O)O[C@H]1C)C[C@H](O)[C@H]2C(=O)O [Amphotericin B, reference compound] |  | 3.1 | 2.2 |  | 
32.7 | 20 to 50 | COc1ccc(-c2cn(-c3ccc4c(c3)OCO4)nn2)cc1OC [Compound 16] |  | >23.5 | > 768 | significantly induce NO production | 
20.4 | 20 to 50 | c1cc2c(cc1-c1cn(-c3ccc4c(c3)OCO4)nn1)OCO2 [Compound 7] |  | 4.2 | 86.2 |  | 
5.6 |  | COc1ccc(-c2cn(-c3cc(OC)c(OC)c(OC)c3)nn2)cc1OC [Compound 14] | active | 14.1 | 79.1 | induced nitric oxide production | effect on infection index ([2]; 24 h after treatment): reduced the infection index at all concentrations tested; reduction of infection index [2, 10]: 86.4%; cytotoxicity on mammalian cells (J774.A1 cells): low cytotoxicity on mammalian cells; nitric oxide (NO) production [3, 8]: significantly induced NO production
14.8 |  | COc1ccc(-c2cn(-c3ccc4c(c3)OCO4)nn2)cc1 [Compound 12] | active | 6.5 | 96.5 | increase in NO production | nitric oxide (NO) production [3, 7]: increase of NO production
9.4 |  | COc1cc(-c2cn(-c3cc(OC)c(OC)c(OC)c3)nn2)cc(OC)c1OC [Compound 6] | active | >66.2 | > 623 | increased production of nitric oxide | concentration from which infection index was significantly decreased ([2]; 24 h after treatment): 6.25 µg/mL; reduction of infection index ([2]; at 50 µg·mL−1, 24 h after treatment): 98.6%; activity on promastigote forms [4]: inactive on promastigote forms
